This note sets out measurements from patent publication US8785630B2, “Insecticidal triazines and pyrimidines” (Vestaron Corporation, priority 2011, dated 2014).

In general, mortality refers to the share of the test organisms that died.

In the assay the test system is beet armyworm (Spodoptera exigua). The assay is described as follows: Insecticidal test for beet armyworm, treated diet surface. The format is in vivo. The settings on record: 100 μg/cm^2 on diet surface, first instar larvae, 32 insects per treatment, observations 24, 48 and 96 hours. The procedure: The compounds identified in Table 8 were prepared according to the previous methods and were tested against beet armyworm and corn earworm as follows:
Insecticidal Test for Beet Armyworm (Spodoptera exigua).
To prepare the test solution, the test compound was Formulated at 3499 ppm in solution as 5 mg compound/1.429 mL of 9 parts acetone: 1 part deionized H2O and vortexed to homogenize. 50 μL of the 3499 ppm (equivalent to 100 μg/cm^2 dose on diet surface area) test solution was pipetted upon the surface of 1 mL of solidified cool Southland Products Incorporated Beet Armyworm Diet (201 Stuart Island Road Lake Village, Ark. 71653) using an Eppendorf Repeater Plus with a 1 mL pipette tip. All pipetting of treatments was done in a Labconco Hood. Thirty minutes were allowed for the acetone to evaporate leaving a dose of 100 μg/cm^2 on the surface of the artificial diet. Two 24 hour old first instar Beet Armyworm (Spodoptera Exigua) larvae were placed in each well of the 128 well Bio-BA 128 Bioassay trays (CD International, Pitman, N.J., 08071, USA) using a #0 fine camel hair paint brush. Bioassay trays were sectioned into treatment groups of 8 with 16 replicates per treatment group (32 insects per treatment). Trays containing the treated diet and larvae were covered with a Bio-CV-16 cover (CD International, Pitman, N.J., 08071, USA) and then placed on a rack under florescent lights at 27° C., 20% relative humidity (RH) in the room, and 16 hr light: 8 hr dark for 96 hours. Observations were made 24, 48 and 96 hours after treatment and infestation. The number of insects dead were counted out of the 32 insects total per treatment and the results are given in a table as a percent mortality at a dose of 100 μg/cm^2. When finished, the tray was moved to the −5° C. freezer and left for 24 hr to insure mortality of the remaining S. exigua. After 24 hours, dispose of entire tray into waste bin.
Keys to the table: Mortality refers to activity against beet army worm (Spodoptera exigua) as defined above at the concentration of 100 μg/cm^2 (A=76-100% mortality, B=51-75% mortality, C=26-50% mortality and D=0-25% mortality).
Compound `Fc1cccc(Cl)c1-c1nc(NN=Cc2ccc(C(F)(F)F)cc2)nc(Nc2ccc(Cl)nc2)n1` [Example 51, 4-(2-chloro-6-fluorophenyl)-N-(6-chloropyridin-3-yl)-6-(2-(4-(trifluoromethyl)benzylidene)hydrazinyl)-1,3,5-triazin-2-amine] yielded a mortality at 100 µg/cm2 of 76 to 100%.

`COc1ccc(C=NNc2nc(Nc3ccc(Cl)nc3)nc(-c3c(F)cccc3Cl)n2)cc1` [Example 54, 4-(2-chloro-6-fluorophenyl)-N-(6-chloropyridin-3-yl)-6-(2-(4-methoxybenzylidene)hydrazinyl)-1,3,5-triazin-2-amine] had a mortality at 100 µg/cm2 of 76 to 100%.

As to `Fc1cccc(Cl)c1-c1nc(NN=Cc2ccc(OC(F)(F)F)cc2)nc(Nc2ccnc(Cl)c2)n1` [Example 40, 4-(2-chloro-6-fluorophenyl)-N-(2-chloropyridin-4-yl)-6-(2-(4-(trifluoromethoxy)benzylidene)hydrazinyl)-1,3,5-triazin-2-amine], the mortality at 100 µg/cm2 was 26 to 50%.

With `Fc1cccc(F)c1-c1nc(NN=Cc2ccc(OC(F)(F)C(F)F)cc2)nc(Nc2ccc(Cl)cc2)n1` [Example 10, N-(4-chlorophenyl)-4-(2,6-difluorophenyl)-6-(2-(4-(1,1,2,2-tetrafluoroethoxy)benzylidene)hydrazinyl)-1,3,5-triazin-2-amine], the mortality at 100 µg/cm2 was in the range of 76 to 100%.

`Fc1cccc(Cl)c1-c1nc(NN=Cc2ccc(OC(F)(F)C(F)Cl)cc2)nc(Nc2ccc(Cl)cc2)n1` (centres unmarked) [Example 37, 4-(2-(4-(2-chloro-1,1,2-trifluoroethoxy)benzylidene)hydrazinyl)-6-(2-chloro-6-fluorophenyl)-N-(4-chlorophenyl)-1,3,5-triazin-2-amine] had a mortality at 100 µg/cm2 of 76 to 100%.

Compound `Fc1ccccc1-c1nc(NN=Cc2ccc(OC(F)(F)F)cc2)nc(Nc2ccc(Cl)nc2)n1` [Example 42, N-(6-chloropyridin-3-yl)-4-(2-fluorophenyl)-6-(2-(4-(trifluoromethoxy)benzylidene)hydrazinyl)-1,3,5-triazin-2-amine] came in with a mortality at 100 µg/cm2 of 76 to 100%.

`Fc1cccc(F)c1-c1nc(NN=Cc2ccc(OC(F)(F)F)cc2)nc(Nc2ccc(Cl)nc2)n1` [Example 9, N-(6-chloropyridin-3-yl)-4-(2,6-difluorophenyl)-6-(2-(4-(trifluoromethoxy)benzylidene)hydrazinyl)-1,3,5-triazin-2-amine] had a mortality at 100 µg/cm2 of 76 to 100%.

Compound `Fc1cccc(-c2nc(NN=Cc3ccc(OC(F)(F)F)cc3)nc(Nc3ccc(Cl)cc3)n2)c1` [Example 31, N-(4-chlorophenyl)-4-(3-fluorophenyl)-6-(2-(4-(trifluoromethoxy)benzylidene)hydrazinyl)-1,3,5-triazin-2-amine] returned a mortality at 100 µg/cm2 of 51 to 75%.

In the case of `Fc1cccc(Cl)c1-c1nc(NN=Cc2ccc(OC(F)(F)C(F)F)cc2)nc(Nc2ccc(Cl)cc2)n1` [Example 11, 4-(2-chloro-6-fluorophenyl)-N-(4-chlorophenyl)-6-(2-(4-(1,1,2,2-tetrafluoroethoxy)benzylidene)hydrazinyl)-1,3,5-triazin-2-amine], the mortality at 100 µg/cm2 lay within 76 to 100%.

Compound `FC(F)(F)Oc1ccc(C=NNc2nc(Nc3ccc(Cl)cn3)cc(-c3ccccc3)n2)cc1` [Example 49, N-(5-chloropyridin-2-yl)-6-phenyl-2-(2-(4-(trifluoromethoxy)benzylidene)hydrazinyl)pyrimidin-4-amine] yielded a mortality at 100 µg/cm2 of 0 to 25%.

The compound `Fc1cccc(Cl)c1-c1nc(NCc2ccc(Cl)nc2)nc(NN=Cc2ccc(OC(F)(F)F)cc2)n1` [Example 22, 4-(2-chloro-6-fluorophenyl)-N-((6-chloropyridin-3-yl)methyl)-6-(2-(4-(trifluoromethoxy)benzylidene)hydrazinyl)-1,3,5-triazin-2-amine] returned a mortality at 100 µg/cm2 of 76 to 100%.

Consider `Fc1cccc(Cl)c1-c1nc(NN=Cc2ccc(OC(F)(F)C(F)Cl)cc2)nc(Nc2ccc(Cl)nc2)n1` (centres unmarked) [Example 36, 4-(2-(4-(2-chloro-1,1,2-trifluoroethoxy)benzylidene)hydrazinyl)-6-(2-chloro-6-fluorophenyl)-N-(6-chloropyridin-3-yl)-1,3,5-triazin-2-amine], for which the mortality at 100 µg/cm2 lay within 76 to 100%.

Compound `Fc1cccc(Cl)c1-c1cc(Nc2ccc(Cl)cc2)nc(NN=Cc2ccc(OC(F)(F)F)cc2)n1` [Example 52, 6-(2-chloro-6-fluorophenyl)-N-(4-chlorophenyl)-2-(2-(4-(trifluoromethoxy)benzylidene)hydrazinyl)pyrimidin-4-amine] showed a mortality at 100 µg/cm2 of 76 to 100%.

`CNc1nc(NN=Cc2ccc(OC(F)(F)F)cc2)nc(-c2c(F)cccc2Cl)n1` [Example 43, 4-(2-chloro-6-fluorophenyl)-N-methyl-6-(2-(4-(trifluoromethoxy)benzylidene)hydrazinyl)-1,3,5-triazin-2-amine] displayed a mortality at 100 µg/cm2 of 76 to 100%.

For the compound `CCc1ccc(C=NNc2nc(Nc3ccc(Cl)cc3)nc(-c3c(F)cccc3Cl)n2)cc1` [Example 17, 4-(2-chloro-6-fluorophenyl)-N-(4-chlorophenyl)-6-(2-(4-ethylbenzylidene)hydrazinyl)-1,3,5-triazin-2-amine], the mortality at 100 µg/cm2 was in the range of 76 to 100%.

In the case of `Fc1cccc(F)c1-c1nc(NN=Cc2ccc(OC(F)(F)C(F)F)cc2)nc(Nc2ccc(Cl)nc2)n1` [Example 15, N-(6-chloropyridin-3-yl)-4-(2,6-difluorophenyl)-6-(2-(4-(1,1,2,2-tetrafluoroethoxy)benzylidene)hydrazinyl)-1,3,5-triazin-2-amine], the mortality at 100 µg/cm2 was in the range of 76 to 100%.

`FC(F)(F)Oc1ccc(C=NNc2nc(Nc3ccc(Cl)nc3)cc(-c3ccccc3)n2)cc1` [Example 47, N-(6-chloropyridin-3-yl)-6-phenyl-2-(2-(4-(trifluoromethoxy)benzylidene)hydrazinyl)pyrimidin-4-amine] registered a mortality at 100 µg/cm2 of 0 to 25%.

On to `FC(F)(F)Oc1ccc(C=NNc2nc(Nc3ccc(Cl)cc3)nc(-c3c(Cl)cccc3Cl)n2)cc1` [Example 14, N-(4-chlorophenyl)-4-(2,6-dichlorophenyl)-6-(2-(4-(trifluoromethoxy)benzylidene)hydrazinyl)-1,3,5-triazin-2-amine], for which the mortality at 100 µg/cm2 lay in the range of 51 to 75%.

For the compound `FC(F)(F)Oc1ccc(C=NNc2nc(NCc3ccc(Cl)nc3)cc(-c3ccccc3)n2)cc1` [Example 56, N-((6-chloropyridin-3-yl)methyl)-6-phenyl-2-(2-(4-(trifluoromethoxy)benzylidene)hydrazinyl)pyrimidin-4-amine], the mortality at 100 µg/cm2 was 76 to 100%.

Regarding `CN(C)Nc1nc(NN=Cc2ccc(OC(F)(F)F)cc2)nc(-c2c(F)cccc2Cl)n1` [Example 25, 2-(2-chloro-6-fluorophenyl)-4-(2,2-dimethylhydrazinyl)-6-(2-(4-(trifluoromethoxy)benzylidene)hydrazinyl)-1,3,5-triazine], the mortality at 100 µg/cm2 fell in the range of 76 to 100%.

`Fc1ccc(Nc2nc(NN=Cc3ccc(OC(F)(F)F)cc3)nc(-c3c(F)cccc3F)n2)cc1C(F)(F)F` [Example 5, 4-(2,6-difluorophenyl)-N-(4-fluoro-3-(trifluoromethyl)phenyl)-6-(2-(4-(trifluoromethoxy)benzylidene)hydrazinyl)-1,3,5-triazin-2-amine]: the mortality at 100 µg/cm2 was 26 to 50%.

With `Cc1ccc(-c2nc(NN=Cc3ccc(OC(F)(F)F)cc3)nc(Nc3ccc(Cl)cc3)n2)cc1` [Example 33, N-(4-chlorophenyl)-4-(p-tolyl)-6-(2-(4-(trifluoromethoxy)benzylidene)hydrazinyl)-1,3,5-triazin-2-amine], the mortality at 100 µg/cm2 lay within 0 to 25%.

`COc1ccc(-c2nc(NN=Cc3ccc(OC(F)(F)F)cc3)nc(Nc3ccc(Cl)cc3)n2)cc1` [Example 30, N-(4-chlorophenyl)-4-(4-methoxyphenyl)-6-(2-(4-(trifluoromethoxy)benzylidene)hydrazinyl)-1,3,5-triazin-2-amine] gave a mortality at 100 µg/cm2 of 0 to 25%.

`CC(=NNc1nc(Nc2ccc(Cl)cc2)nc(-c2c(F)cccc2Cl)n1)c1ccc(OC(F)(F)F)cc1` [Example 21, 4-(2-chloro-6-fluorophenyl)-N-(4-chlorophenyl)-6-(2-(1-(4-(trifluoromethoxy)phenyl)ethylidene)hydrazinyl)-1,3,5-triazin-2-amine]: the mortality at 100 µg/cm2 fell in the range of 76 to 100%.

With `COc1cccc(-c2nc(NN=Cc3ccc(OC(F)(F)F)cc3)nc(Nc3ccc(Cl)cc3)n2)c1` [Example 29, N-(4-chlorophenyl)-4-(3-methoxyphenyl)-6-(2-(4-(trifluoromethoxy)benzylidene)hydrazinyl)-1,3,5-triazin-2-amine], the mortality at 100 µg/cm2 lay in the range of 0 to 25%.

`FC(F)(F)Oc1ccc(C=NNc2nc(NCc3ccc(Cl)cc3)cc(-c3ccccc3)n2)cc1` [Example 61, N-(4-chlorobenzyl)-6-phenyl-2-(2-(4-(trifluoromethoxy)benzylidene)hydrazinyl)pyrimidin-4-amine] gave a mortality at 100 µg/cm2 of 76 to 100%.
